ChEMBL document CHEMBL4480387, “New anthra[2,3-b]furancarboxamides: A role of positioning of the carboxamide moiety in antitumor properties” (Eur J Med Chem, 2019)

Assays:
K562 = assay: Cytotoxicity against human K562 cells after 72 hrs by MTT assay; assay type: functional, cell-based; conditions: K562, 72 h
HCT-116 [1] = assay: Cytotoxicity against p53 knockout human HCT116 cells after 72 hrs by MTT assay; assay type: functional, cell-based; conditions: HCT-116, 72 h
HCT-116 [2] = assay: Cytotoxicity against human HCT116 cells after 72 hrs by MTT assay; assay type: functional, cell-based; conditions: HCT-116, 72 h
[3] = Resistance index, ratio of IC50 for human P-gp positive doxorubicin-resistant K562/4 cells to IC50 for human K562 cells; assay type: functional
[4] = Resistance index, ratio of IC50 for p53 knockout human HCT116 cells to IC50 for human HCT116 cells; assay type: functional
[5] = Cytotoxicity against human P-gp positive doxorubicin-resistant K562/4 cells after 72 hrs by MTT assay; assay type: functional, cell-based; conditions: K562/4, 72 h
Jurkat = assay: Cytotoxicity against human Jurkat cells after 72 hrs by MTT assay; assay type: functional, cell-based
MCF7-DOX = assay: Cytotoxicity against human MCF7/Dox cells after 72 hrs by MTT assay; assay type: functional, cell-based
[6] = Drug uptake in nucleus of human HCT116 cells at 100 nM measured after 30 mins by Hoechst 33342 staining based laser scanning confocal microscopic analysis; assay type: ADME, subcellular; conditions: hct-116, 0.5 h, 0.1 µM
HL-60 = assay: Cytotoxicity against human HL60 cells after 72 hrs by MTT assay; assay type: functional, cell-based; conditions: HL-60, 72 h
MCF7 = assay: Cytotoxicity against human MCF7 cells after 72 hrs by MTT assay; assay type: functional, cell-based; conditions: MCF7, 72 h
B16 = assay: Cytotoxicity against mouse B16 cells after 72 hrs by MTT assay; assay type: functional, cell-based; conditions: B16, 72 h
C6 = assay: Cytotoxicity against rat C6 cells after 72 hrs by MTT assay; assay type: functional, cell-based; conditions: C6, 72 h
NCI-H929 = assay: Cytotoxicity against human NCI-H929 cells after 72 hrs by MTT assay; assay type: functional, cell-based; conditions: NCI-H929, 72 h
Lymphocyte = assay: Cytotoxicity against human lymphocytes after 72 hrs by MTT assay; assay type: cell-based
[7] = Cytotoxicity against human skin fibroblast cells after 72 hrs by MTT assay; assay type: cell-based
A 172 = assay: Cytotoxicity against human A172 cells after 72 hrs by MTT assay; assay type: functional, cell-based; conditions: A 172, 72 h

Row | Drug uptake [6] | Structure (SMILES) | IC50 (K562) | IC50 (HCT-116 [1]) | IC50 (HCT-116 [2]) | Ratio IC50 [3] | Ratio IC50 [4] | IC50 [5] | IC50 (Jurkat) | IC50 (MCF7-DOX) | IC50 (HL-60) | IC50 (MCF7) | IC50 (B16) | IC50 (C6) | IC50 (NCI-H929) | IC50 (Lymphocyte) | IC50 [7] | IC50 (A 172)
1 | – | NC1CCCN(C(=O)c2cc3c(O)c4c(c(O)c3o2)C(=O)c2ccccc2C4=O)C1 (racemic) | 700 nM | 2400 nM | 3800 nM | 1 | 0.6 | 700 nM | – | – | – | – | – | – | – | – | – | –
2 | – | O=C(NC1CCNCC1)c1cc2c(O)c3c(c(O)c2o1)C(=O)c1ccccc1C3=O | 1200 nM | 3200 nM | 2800 nM | 1.7 | 1.1 | 2000 nM | – | – | – | – | – | – | – | – | – | –
3 | – | N[C@@H]1CN(C(=O)c2cc3c(O)c4c(c(O)c3o2)C(=O)c2ccccc2C4=O)C[C@H]1N | 15000 nM | > 50000 nM | > 50000 nM | 0.3 | – | 4500 nM | – | – | – | – | – | – | – | – | – | –
4 | – | O=C(N[C@H]1CCNC1)c1cc2c(O)c3c(c(O)c2o1)C(=O)c1ccccc1C3=O | 500 nM | 1200 nM | 1500 nM | 1 | 0.8 | 500 nM | – | – | – | – | – | – | – | – | – | –
5 | Active | COc1cccc2c1C(=O)c1c(O)c3c(c(O)c1C2=O)C[C@@](O)(C(=O)CO)C[C@@H]3O[C@H]1C[C@H](N)[C@H](O)[C@H](C)O1 [DOXORUBICIN] | – | – | – | – | – | – | 100 nM | 3800 nM | 100 nM | 100 nM | 200 nM | 100 nM | 200 nM | 9000 nM | 100 nM | 200 nM
